Data reported in paper PMC11173536, “2-Aryladenine Derivatives as a Potent Scaffold for Adenosine Receptor Antagonists: The 6-Morpholino Derivatives” (Molecules, 2024).
Where two headings read alike, the source gives them in different places.

Assays:
[1] = target: T1, human A1 adenosine receptor (Homo sapiens, UniProt P30542); assay: radioligand competition, [3H]DPCPX, CHO-A1 membranes; type: binding
T1 construct: gene ADORA1; full-length receptor
T1 sequence (P30542 1-326): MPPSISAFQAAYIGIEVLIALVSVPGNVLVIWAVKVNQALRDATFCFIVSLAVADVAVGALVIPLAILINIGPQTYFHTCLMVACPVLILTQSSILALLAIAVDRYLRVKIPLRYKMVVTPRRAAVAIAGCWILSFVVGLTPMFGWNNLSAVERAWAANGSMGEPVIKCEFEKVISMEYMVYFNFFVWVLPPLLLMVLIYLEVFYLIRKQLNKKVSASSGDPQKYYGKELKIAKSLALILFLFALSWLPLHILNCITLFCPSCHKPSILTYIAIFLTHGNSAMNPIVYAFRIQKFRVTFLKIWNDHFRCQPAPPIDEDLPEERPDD

[2] = target: T2, human A3 adenosine receptor (Homo sapiens, UniProt P0DMS8); assay: radioligand competition, [3H]NECA, HeLa-A3 membranes; type: binding
T2 construct: gene ADORA3; full-length receptor
T2 sequence (P0DMS8 1-318): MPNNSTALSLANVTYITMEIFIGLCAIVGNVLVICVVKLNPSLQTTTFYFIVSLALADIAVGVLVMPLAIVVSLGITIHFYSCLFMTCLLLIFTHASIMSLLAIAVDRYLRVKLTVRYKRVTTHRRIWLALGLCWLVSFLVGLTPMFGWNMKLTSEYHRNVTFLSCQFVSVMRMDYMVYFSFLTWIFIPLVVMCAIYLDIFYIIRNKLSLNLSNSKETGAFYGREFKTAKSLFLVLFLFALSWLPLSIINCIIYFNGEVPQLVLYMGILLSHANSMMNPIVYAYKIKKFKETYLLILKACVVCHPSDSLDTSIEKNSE
Excerpt: radioligand competition, [3H]NECA, HeLa-A3 membranes on human A3 adenosine receptor

[3] = target: T3, human A2B adenosine receptor (Homo sapiens, UniProt P29275); assay: radioligand competition, [3H]DPCPX, HEK-293-A2B membranes; type: binding
T3 construct: gene ADORA2B; full-length receptor; membranes of HEK-293-A2B cells (Euroscreen)
T3 sequence (P29275 1-332): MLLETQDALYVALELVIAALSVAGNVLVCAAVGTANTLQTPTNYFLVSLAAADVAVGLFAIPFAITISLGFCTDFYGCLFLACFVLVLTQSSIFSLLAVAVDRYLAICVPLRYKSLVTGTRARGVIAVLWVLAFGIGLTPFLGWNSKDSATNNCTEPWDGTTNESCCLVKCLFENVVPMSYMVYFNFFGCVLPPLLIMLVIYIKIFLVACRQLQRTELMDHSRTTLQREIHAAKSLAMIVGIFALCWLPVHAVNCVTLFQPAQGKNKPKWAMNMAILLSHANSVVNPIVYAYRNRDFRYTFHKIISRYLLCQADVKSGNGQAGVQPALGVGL
Excerpt: radioligand competition, [3H]DPCPX, HEK-293-A2B membranes on human A2B adenosine receptor

[4] = target: T2, human A3 adenosine receptor; assay: cAMP enzyme immunoassay, antagonism of NECA, CHO-A3 cells; type: cell-based; conditions: read-out: Potency (pKB) / A3 (converted)
Excerpt: cAMP enzyme immunoassay, antagonism of NECA, CHO-A3 cells on human A3 adenosine receptor

[5] = target: T1, human A1 adenosine receptor; assay: radioligand competition, [3H]DPCPX, CHO-A1 membranes; type: binding; remark: listed apart in the source
Excerpt: radioligand competition, [3H]DPCPX, CHO-A1 membranes on human A1 adenosine receptor

[6] = target: T4, human A2A adenosine receptor (Homo sapiens, UniProt P29274); assay: radioligand competition, [3H]ZM241385, HeLa-A2A membranes; type: binding
T4 construct: gene ADORA2A; full-length receptor; membranes of HeLa-A2A cells
Excerpt: radioligand competition, [3H]ZM241385, HeLa-A2A membranes on human A2A adenosine receptor

[7] = target: T1, human A1 adenosine receptor; assay: cAMP enzyme immunoassay, antagonism of NECA, CHO-A1 cells; type: cell-based; conditions: read-out: Potency (pKB) / A1 (converted)
Excerpt: cAMP enzyme immunoassay, antagonism of NECA, CHO-A1 cells on human A1 adenosine receptor

T4 sequence (P29274 whole entry): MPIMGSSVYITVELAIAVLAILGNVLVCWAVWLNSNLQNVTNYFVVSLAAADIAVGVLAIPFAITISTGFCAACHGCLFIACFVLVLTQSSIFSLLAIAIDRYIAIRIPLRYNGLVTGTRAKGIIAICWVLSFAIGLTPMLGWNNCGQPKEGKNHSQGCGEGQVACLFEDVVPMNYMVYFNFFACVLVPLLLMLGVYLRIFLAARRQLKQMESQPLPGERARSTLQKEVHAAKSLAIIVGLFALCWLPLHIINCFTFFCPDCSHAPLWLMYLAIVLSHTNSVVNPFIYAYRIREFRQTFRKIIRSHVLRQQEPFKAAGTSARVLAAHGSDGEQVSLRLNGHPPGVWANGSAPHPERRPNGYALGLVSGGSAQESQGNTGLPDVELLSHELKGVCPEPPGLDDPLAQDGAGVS

Work on Cn1cnc2c(N3CCOCC3)nc(-c3cccc(O)c3)nc21 [3e, 3-(9-Methyl-6-morpholino-9H-purin-2-yl)phenol] yielded a Ki ([1]; read-out: A1 (converted)) of 692 nM.
In the case of Clc1ccc(Cl)c(-c2nc(N3CCOCC3)c3nc[nH]c3n2)c1 [3t, 4-(2-(2,5-Dichlorophenyl)-9H-purin-6-yl)morpholine], the Ki ([1]; read-out: A1 (converted)) is reported as 1070 nM and the Ki [2] is reported as 69.2 nM.
COc1ccc(F)c(-c2nc(N3CCOCC3)c3nc[nH]c3n2)c1 [3v, 4-(2-(2-Fluoro-5-methoxyphenyl)-9H-purin-6-yl)morpholine] was tested, and the Ki [3] was 398 nM, the Ki ([1]; read-out: pKi (converted)) was > 10000 nM and the Kb [4] was 5.75 nM. The Ki [2] was 14.8 nM.
FC(F)(F)c1cc(-c2nc(N3CCOCC3)c3nc[nH]c3n2)ccc1Cl [3s, 4-(2-(4-Chloro-3-(trifluoromethyl)phenyl)-9H-purin-6-yl)morpholine] was tested, and the Ki [2] was 955 nM.
Clc1ccc(-c2nc(N3CCOCC3)c3nc[nH]c3n2)cc1 [3q, 4-(2-(4-Chlorophenyl)-9H-purin-6-yl)morpholine] was tested, and the Ki ([1]; read-out: A1 (converted)) was 95.5 nM and the Ki [2] was 33.9 nM.
Work on Cn1cnc2c(N3CCOCC3)nc(-c3cc(F)ccc3F)nc21 [3m, 4-(2-(2,5-Difluorophenyl)-9-methyl-9H-purin-6-yl)morpholine] yielded a Ki ([1]; read-out: A1 (converted)) of 525 nM.
In the case of Cn1cnc2c(N3CCOCC3)nc(-c3cccc(O)c3O)nc21 [3g, 3-(9-Methyl-6-morpholino-9H-purin-2-yl)benzene-1,2-diol], the inhibition at 10 µM [5] is reported as 33 ± 0.3%.
COc1ccc(F)c(-c2nc(N3CCOCC3)c3ncn(C)c3n2)c1 [3l, 4-(2-(2-Fluoro-5-methoxyphenyl)-9-methyl-9H-purin-6-yl)morpholine] showed a Ki [2] of 5250 nM.
COc1ccc(O)c(-c2nc(N3CCOCC3)c3ncn(C)c3n2)c1 [3j, 4-Methoxy-2-(9-methyl-6-morpholino-9H-purin-2-yl)phenol] gave a Ki [3] of 1660 nM, a Ki [6] of 1230 nM and a Ki ([1]; read-out: A1 (converted)) of 525 nM.
Clc1cccc(-c2nc(N3CCOCC3)c3nc[nH]c3n2)c1 [3o, 4-(2-(3-Chlorophenyl)-9H-purin-6-yl)morpholine] was tested, and the Ki [3] was 75.9 nM, the Ki [6] was 46.8 nM and the Ki ([1]; read-out: A1 (converted)) was 17.8 nM. The Ki [2] was 39.8 nM.
Work on Cn1cnc2c(N3CCOCC3)nc(-c3ccccc3O)nc21 [3c, 2-(9-Methyl-6-morpholino-9H-purin-2-yl)phenol] yielded a Ki [3] of 2000 nM, a Ki [6] of 339 nM and a Ki ([1]; read-out: A1 (converted)) of 309 nM.
For Fc1ccc(F)c(-c2nc(N3CCOCC3)c3nc[nH]c3n2)c1 [3x, 4-(2-(2,5-Difluorophenyl)-9H-purin-6-yl)morpholine], the Kb [7] was 5.62 nM, the Ki [3] was 36.3 nM and the Ki [6] was 70.8 nM. For the same compound, the Ki ([1]; read-out: A1 (converted)) was 5.89 nM and the Ki [2] was 23.4 nM.
Cn1cnc2c(N3CCOCC3)nc(-c3cc(Cl)ccc3O)nc21 [3k, 4-Chloro-2-(9-methyl-6-morpholino-9H-purin-2-yl)phenol] was tested, and the Ki [6] was 708 nM and the Ki ([1]; read-out: A1 (converted)) was 123 nM.
For Cn1cnc2c(N3CCOCC3)nc(-c3cccc(Cl)c3)nc21 [3d, 4-(2-(3-Chlorophenyl)-9-methyl-9H-purin-6-yl)morpholine], the Ki ([1]; read-out: A1 (converted)) was 158 nM.
Work on Cn1cnc2c(N3CCOCC3)nc(-c3cc(Cl)ccc3Cl)nc21 [3h, 4-(2-(2,5-Dichlorophenyl)-9-methyl-9H-purin-6-yl)morpholine] yielded an inhibition at 10 µM [5] of 41 ± 2%.
Oc1ccccc1-c1nc(N2CCOCC2)c2nc[nH]c2n1 [3n, 2-(6-Morpholino-9H-purin-2-yl)phenol] gave a Ki [3] of 138 nM, a Ki [6] of 107 nM and a Ki ([1]; read-out: A1 (converted)) of 64.6 nM. The Ki [2] was 257 nM.
Compound COc1ccccc1-c1nc(N2CCOCC2)c2ncn(C)c2n1 [3b, 4-(2-(2-Methoxyphenyl)-9-methyl-9H-purin-6-yl)morpholine] has an inhibition at 10 µM [5] of 22 ± 1%.
With Oc1ccc(Cl)cc1-c1nc(N2CCOCC2)c2nc[nH]c2n1 [3u] the Ki [3] was 617 nM and the Ki ([1]; read-out: A1 (converted)) was 89.1 nM.
Cn1cnc2c(N3CCOCC3)nc(-c3cc(O)ccc3O)nc21 [3i, 2-(9-Methyl-6-morpholino-9H-purin-2-yl)benzene-1,4-diol] was tested, and the Ki [3] was 479 nM, the Ki [6] was 562 nM and the Ki ([1]; read-out: A1 (converted)) was 437 nM.
Compound Cn1cnc2c(N3CCOCC3)nc(-c3ccc(Cl)cc3)nc21 [3f, 4-(2-(4-Chlorophenyl)-9-methyl-9H-purin-6-yl)morpholine] has an inhibition at 10 µM [5] of 37 ± 4%.
Work on Oc1cccc(-c2nc(N3CCOCC3)c3nc[nH]c3n2)c1 [3p, 3-(6-Morpholino-9H-purin-2-yl)phenol] yielded a Ki [6] of 550 nM, a Ki ([1]; read-out: A1 (converted)) of 32.4 nM and a Ki [2] of 468 nM.
Clc1ccc(-c2nc(N3CCOCC3)c3nc[nH]c3n2)cc1Cl [3r, 4-(2-(3,4-Dichlorophenyl)-9H-purin-6-yl)morpholine] gave a Ki [2] of 70.8 nM.
With Cn1cnc2c(N3CCOCC3)nc(-c3ccccc3Cl)nc21 [3a, 4-(2-(2-Chlorophenyl)-9-methyl-9H-purin-6-yl)morpholine] the inhibition at 10 µM [5] was 36 ± 1%.
